What all share (type): cell-based, human
For one test, the system named is CaSki cells. The test can be described thus: Cell cycle analysis by flow cytometry, CaSki. To be noted: 10 and 15 μM. Here is the method: The effect of Br-ORM on cell cycle analysis was performed by flow cytometry as has described in the art. In brief, approximately 70% confluent cervical cancer cells were treated with Br-ORM (10 and 20 μM) for 24 hours. The cells were trypsinized and washed twice with ice-cold PBS (1×). The cell pellets were resuspended in 50 μL of ice cold PBS (1×) and 450 μL of cold methanol. The cells were washed twice with ice cold PBS (1×), suspended in 500 μL PBS, and incubated with 500 μL RNase (20 μg/mL final concentration) at 37° C. for 1 hour. The cells were chilled over ice for 10 minutes and stained with propidium iodide (50 μg/mL final concentration) for 1 hour and analyzed by flow cytometry (BD Accuri C6; Becton Dickinson, Mountain View, CA, USA). Data was analyzed by using Modfit software.
To examine the effect on cell cycle distribution, cervical cancer cells were treated with Br-ORM (10 and 15 μM) and analyzed by flow cytometry (FIG. 13F(i)-(ii)).

The test system of test [1] is HPV16 E6 and E7 transcripts in SiHa cells. Kind of test: qPCR of HPV E6 and HPV E7 transcripts, SiHa. The following applies: 18 hours. (In qPCR the cycle at which signal appears reflects the starting amount.)
For another test, the system named is β-catenin in SiHa cells. The test can be described thus: β-catenin degradation with cyclohexamide (western blot, pulse chase), SiHa. The following applies: with cyclohexamide (CHX: 50 mg), ORM-Br. On the procedure: A western blot analysis was conducted to determine the effect of ORM-Br on β-catenin degradation. […] Protein lysates were prepared and subjected to western blot analysis to ascertain the levels of protein of β-catenin in cyclohexamide-treated cells (FIG. 3A) and in ORM-Br and cyclohexamide-treated cells (FIG. 3B).
On the technique in general: Immunoblotting shows a protein as a band on a membrane.

Another test has as its system SiHa cells. The test can be described thus: Cell proliferation assay (MTS), SiHa. The following applies: 1-20 μM, 24 hours. On the procedure:
The effect of Br-ORM on CaSki and SiHa cells proliferation was performed using the MTS assay. Briefly, cells were seeded at a density of 5×10^3 cells per well in 96 well plate and allowed to stand overnight at 37° C. and 5% CO2 incubator. Next day, cells were treated with different concentrations of Br-ORM (1, 5, 10 and 20 μM). DMSO was used as a vehicle for the treatment of control cells. Twenty four hours post-treatment, 20 μL of MTS reagent (5 mg/mL) was added in each well and further incubated the plate for 2 hours in a CO2 incubator. Absorbance was taken after 2 hours at […] (SpectraMax M2 spectrophotometer, Molecular Devices, Sunnyvale, CA, USA). The experiment was performed in triplicates. Results were represented as percent viability with respect to the control group. […]
FIG. 13. […] Cell viability was assessed by MTS assay. […] Bar graphs indicating quantification of colony formation in CaSki (i), and SiHa (ii) cells of cervical cancer with respect to vehicle control. […] Briefly, cervical cancer cells were treated with Br-ORM (10 μM) for 24 hours and the apoptosis inducing effect of Br-ORM was analyzed by Annexin V staining. […] The equal loading of protein in each lane was determined by probing the blots with β-actin antibody (FIG. 13F). […] Br-ORM arrests cell cycle in G1/S phase as determined by flow cytometry. […]

Data on one molecule can be found in patent US20240208950A1, “COMPOSITIONS AND METHODS FOR TREATMENT OF CERVICAL AND OVARIAN CANCER” (SOUTH DAKOTA BOARD OF REGENTS, priority 2021, published 2024).

`COc1ccc2c(c1)OC(C)(C)C(c1ccc(Br)cc1)C2c1ccc(OCCN2CCCC2)cc1` (centres unmarked) [ORM-Br]: the cell cycle distribution result in the test with CaSki cells is “arrested cell cycle progression of CaSki and SiHa cells at G1/S phase”. Also, the “HPV16 E6 and E7 transcripts” value in test [1] is recorded as “significant downregulation”. The “protein levels of β-catenin relative to cyclohexamide treatment” value in the test on β-catenin in SiHa cells is “significant decrease in protein levels of β-catenin”. Besides, the “cell viability / growth” value is recorded as “inhibits the growth” in the test with SiHa cells and “dose dependently inhibited the cell viability” in the test with SiHa cells (listed as Br-ORM).
